Marks after values point to notes of the source that are not given here.
Test: Proportions of kidney transplant recipients with subtherapeutic or supratherapeutic tacrolimus trough concentration
Assay type: in vivo, human
Procedure: All participants received oral, immediate-release tacrolimus (Prograf®; Astellas, Kerry, Ireland). According to Siriraj Hospital protocol, the initial dose (0.05 mg/kg every 12 h) of tacrolimus was started 2 days before KT (day − 2) and subsequently adjusted after KT based on efficacy and toxicity and to maintain morning trough concentrations of 7 to 10 ng/mL in standard risk patients and 10 to 12 ng/mL in high-risk patients during the first week after transplantation. Participants also received either mycophenolate mofetil (Cellcept®; F Hoffmann-La Roche Ltd, Basel, Switzerland or Immucept®; Intas Pharmaceuticals Ltd., Gujarat, India) or mycophenolate sodium (Myfortic®; Novartis Pharma Stein, Switzerland for Novartis AG, Basel, Switzerland) at the dosage equivalent to 2 g/day of mycophenolate mofetil. A tapered corticosteroid regimen was administered consisting of an intravenous bolus of 500 mg of methylprednisolone (Solu-medrol®; Novartis Pharma Stein, Switzerland for Novartis AG, Basel, Switzerland) on day 0, 250 mg on day 1, 125 mg on day 2 followed by 40 mg/day of prednisolone on day 4 after KT. The subsequent prednisolone doses were gradually tapered thereafter. Induction therapy with basiliximab (Simulect®; Novartis Pharma AG, Basel, Switzerland) was allowed.
On day 7 post-KT, after the tacrolimus dosage was stable for at least 48 h, venous blood samples (5 mL) were collected at pre-dose and 1, 2, 4, 6, 8 and 12 h after the morning dose of tacrolimus. Samples were collected in EDTA tubes and stored at 4 degrees Celsius until analysis. Whole blood tacrolimus concentrations were determined within the same day of blood collection by using a chemiluminescent microparticle immunoassay method with […] system® i2000 (Abbott, Abbott Diagnostic, USA). The method was linear in the concentration range up to 30 ng/mL, the limits of quantification were 0.8 ng/mL, and the coefficient of variation of within run precision and between run precision were less than 10%. Mean recovery was 100 ± 10% according to the manufacturer’s information.
The primary outcome measure was AUC/D at day 7 post-KT. […]

[1] = day 1 post-transplantation, CYP3A5 expressers, diltiazem (n = 11)
[2] = day 1 post-transplantation, CYP3A5 expressers, placebo (n = 12)
[3] = day 1 post-transplantation, CYP3A5 non-expressers, diltiazem (n = 9)
[4] = day 1 post-transplantation, CYP3A5 non-expressers, placebo (n = 8)
[5] = day 1 post-transplantation, total (n = 40)
[6] = day 3 post-transplantation, CYP3A5 expressers, diltiazem (n = 11)
[7] = day 3 post-transplantation, CYP3A5 expressers, placebo (n = 12)
[8] = day 3 post-transplantation, CYP3A5 non-expressers, diltiazem (n = 9)
[9] = day 3 post-transplantation, CYP3A5 non-expressers, placebo (n = 8)
[10] = day 3 post-transplantation, total (n = 40)
[11] = day 5 post-transplantation, CYP3A5 expressers, diltiazem (n = 11)
[12] = day 5 post-transplantation, CYP3A5 expressers, placebo (n = 12)
[13] = day 5 post-transplantation, CYP3A5 non-expressers, diltiazem (n = 9)
[14] = day 5 post-transplantation, CYP3A5 non-expressers, placebo (n = 8)
[15] = day 5 post-transplantation, total (n = 40)
[16] = day 7 post-transplantation, CYP3A5 expressers, diltiazem (n = 11)
[17] = day 7 post-transplantation, CYP3A5 expressers, placebo (n = 12)
[18] = day 7 post-transplantation, CYP3A5 non-expressers, diltiazem (n = 9)
[19] = day 7 post-transplantation, CYP3A5 non-expressers, placebo (n = 8)
[20] = day 7 post-transplantation, total (n = 40)

Trough concentration higher than 15 ng/mL [1]: 1 (9.1) n (%)
Trough concentration lower than 5 ng/mL [1]: 0 (0) n (%)
Trough concentration lower than the target range [1]: 1 (9.1) n (%)
Trough concentration higher than 15 ng/mL [2]: 0 (0) n (%)
Trough concentration lower than 5 ng/mL [2]: 4 (33.3) n (%)
Trough concentration lower than the target range [2]: 7 (58.3) n (%)
Trough concentration higher than 15 ng/mL [3]: 3 (33.3) n (%)
Trough concentration lower than 5 ng/mL [3]: 1 (11.1) n (%)
Trough concentration lower than the target range [3]: 2 (22.2) n (%)
Trough concentration higher than 15 ng/mL [4]: 3 (37.5) n (%)
Trough concentration lower than 5 ng/mL [4]: 1 (12.5) n (%)
Trough concentration lower than the target range [4]: 2 (25.0) n (%)
Trough concentration higher than 15 ng/mL [5]: 7 (17.5) n (%)
Trough concentration lower than 5 ng/mL [5]: 6 (15.0) n (%)
Trough concentration lower than the target range [5]: 12 (30.0) n (%)
Trough concentration lower than 5 ng/mL (day 3 post-transplantation, CYP3A5 expressers, diltiazem (EXdtz, n = 11)): 1 (9.1) n (%)
Trough concentration lower than 5 ng/mL (day 3 post-transplantation, CYP3A5 expressers, diltiazem (EXdtz, n = 11), listed as tacrolimus): one
Trough concentration higher than 15 ng/mL [6]: 0 (0) n (%)
Trough concentration lower than the target range [6]: 2 (18.2)^b n (%)
Trough concentration lower than 5 ng/mL (day 3 post-transplantation, CYP3A5 expressers, placebo (EXplb, n = 12)): 4 (33.3) n (%)
Trough concentration lower than 5 ng/mL (day 3 post-transplantation, CYP3A5 expressers, placebo (EXplb, n = 12), listed as tacrolimus): four
Trough concentration higher than 15 ng/mL [7]: 0 (0) n (%)
Trough concentration lower than the target range [7]: 8 (66.7) n (%)
Trough concentration lower than 5 ng/mL (day 3 post-transplantation, CYP3A5 non-expressers, diltiazem (NEdtz, n = 9)): 0 (0) n (%)
Trough concentration lower than 5 ng/mL (day 3 post-transplantation, CYP3A5 non-expressers, diltiazem (NEdtz, n = 9), listed as tacrolimus): none
Trough concentration higher than 15 ng/mL [8]: 0 (0) n (%)
Trough concentration lower than the target range [8]: 0 (0)^b n (%)
Trough concentration lower than 5 ng/mL (day 3 post-transplantation, CYP3A5 non-expressers, placebo (NEplb, n = 8)): 0 (0) n (%)
Trough concentration lower than 5 ng/mL (day 3 post-transplantation, CYP3A5 non-expressers, placebo (NEplb, n = 8), listed as tacrolimus): none
Trough concentration higher than 15 ng/mL [9]: 1 (12.5) n (%)
Trough concentration lower than the target range [9]: 0 (0)^b n (%)
Trough concentration higher than 15 ng/mL [10]: 1 (2.5) n (%)
Trough concentration lower than 5 ng/mL [10]: 5 (12.5) n (%)
Trough concentration lower than the target range [10]: 10 (25.0) n (%)
Trough concentration higher than 15 ng/mL [11]: 0 (0) n (%)
Trough concentration lower than 5 ng/mL [11]: 1 (9.1) n (%)
Trough concentration lower than the target range [11]: 7 (63.6) n (%)
Trough concentration higher than 15 ng/mL [12]: 0 (0) n (%)
Trough concentration lower than 5 ng/mL [12]: 1 (8.3) n (%)
Trough concentration lower than the target range [12]: 7 (58.3) n (%)
Trough concentration higher than 15 ng/mL [13]: 0 (0) n (%)
Trough concentration lower than 5 ng/mL [13]: 0 (0) n (%)
Trough concentration lower than the target range [13]: 2 (22.2) n (%)
Trough concentration higher than 15 ng/mL [14]: 0 (0) n (%)
Trough concentration lower than 5 ng/mL [14]: 2 (25.0) n (%)
Trough concentration lower than the target range [14]: 2 (25.0) n (%)
Trough concentration higher than 15 ng/mL [15]: 0 (0) n (%)
Trough concentration lower than 5 ng/mL [15]: 4 (10.0) n (%)
Trough concentration lower than the target range [15]: 18 (45.0) n (%)
Trough concentration higher than 15 ng/mL [16]: 0 (0) n (%)
Trough concentration lower than 5 ng/mL [16]: 0 (0) n (%)
Trough concentration lower than the target range [16]: 6 (54.5) n (%)
Trough concentration higher than 15 ng/mL [17]: 0 (0) n (%)
Trough concentration lower than 5 ng/mL [17]: 0 (0) n (%)
Trough concentration lower than the target range [17]: 1 (8.3) n (%)
Trough concentration higher than 15 ng/mL [18]: 0 (0) n (%)
Trough concentration lower than 5 ng/mL [18]: 0 (0) n (%)
Trough concentration lower than the target range [18]: 3 (33.3) n (%)
Trough concentration higher than 15 ng/mL [19]: 0 (0) n (%)
Trough concentration lower than 5 ng/mL [19]: 0 (0) n (%)
Trough concentration lower than the target range [19]: 2 (25.0) n (%)
Trough concentration higher than 15 ng/mL [20]: 0 (0) n (%)
Trough concentration lower than 5 ng/mL [20]: 0 (0) n (%)
Trough concentration lower than the target range [20]: 12 (30.0) n (%)
Compound: C=CC[C@@H]1/C=C(\C)C[C@H](C)C[C@H](OC)[C@H]2O[C@@](O)(C(=O)C(=O)N3CCCC[C@H]3C(=O)O[C@H](/C(C)=C/[C@@H]3CC[C@@H](O)[C@H](OC)C3)[C@H](C)[C@@H](O)CC1=O)[C@H](C)C[C@@H]2OC [Tacrolimus]

Source: publication PMC9393165 (Scientific Reports, 2022)
